Source: publication PMC5464911, “SEL120-34A is a novel CDK8 inhibitor active in AML cells with high levels of serine phosphorylation of STAT1 and STAT5 transactivation domains” (Oncotarget, 2017)
Like-named read-outs stand apart in the source and are kept apart here.

How the values were obtained:
STAT1 S727 = assay: IFN-dependent STAT1 S727 phosphorylation in HCT-116 cells (WB); assay type: cell-based; conditions: IFNa or IFNg for 4 hours, increasing concentrations
Protocol: (B) SEL120-34A inhibits IFN-dependent phosphorylation of STAT1 S727. HCT-116 cells stimulated with IFNg for 4 h were treated with increasing doses of SEL120-34A, Flavopiridol (F) or vehicle DMSO (C) to determine changes in the phosphorylation of STAT1 S727 and Y701, as measured by WB. (*) unspecific band. (C) SEL120-34A inhibits serine phosphorylation of STAT1 S727 and STAT5 S726, whereas Ruxolitinib inhibits tyrosine phosphorylation of STAT1 Y701 and STAT5 Y694 in JAK2 V617F cells. SET-2 cells were treated with Ruxolitinib, SEL120-34A or vehicle DMSO (C) for 24 hours and protein levels of pS727, pY701 STAT1 and pS726, pY694 STAT5 were measured by WB. […]
0,1% SDS; 20 mM β-glicerol phosphate; 5 mM NaF; cat. # sc835), α-STAT5-pS726 (1:1000; Abcam, cat. # 1 mM Na3VO4) supplemented with protease inhibitors ab128896), α-STAT5-pY694 (1:1000; Cell Signaling, (Santa Cruz Biotechnology). […] Protein concentration in lysates (1:20000; Sigma, cat. # G9545) was measured by the Bradford assay and adjusted to achieve the same final concentration in each well (20-30 mRNA extraction from xenograft tissue μg protein/well). […] Prior to microarray analyses, the quality of the incubation with secondary donkey anti-rabbit antibodies RNA samples was determined using an Agilent 2100 conjugated to HRP, used at 1:4000 (Cell Signaling, Bioanalyzer (Agilent Technologies, CA, USA). […]

Oci-AML5 = assay: Extended viability test (AlamarBlue); assay type: cell-based; conditions: Homo sapiens, OCI-AML-5; extended viability assay
CDK1/CycA2 = CDK1/CycA2 (Homo sapiens, UniProt P06493); assay: CDK family single point inhibition assay; assay type: biochemical; conditions: Km ATP
CDK2/CycA2 = CDK2/CycA2 (Homo sapiens, UniProt P24941); assay: CDK family single point inhibition assay; assay type: biochemical; conditions: Km ATP
CDK2/CycE1 = CDK2/CycE1 (Homo sapiens, UniProt P24941); assay: CDK family single point inhibition assay; assay type: biochemical; conditions: Km ATP

With `Cc1c(Br)c(Br)c2c3c1nc(N1CCNCC1)n3CCC2` [SEL120-34A] the “STAT1 S727 phosphorylation” value (STAT1 S727) was “dose-depended inhibition”, the GI50 (Oci-AML5) was 30 nM and the remaining activity at 1 µM (CDK1/CycA2; mean, read-out: % remaining activity @1μM CDK1/CycA2 Mean) was 76%. It also gave a remaining activity at 1 µM (CDK1/CycA2; repeat 1, read-out: % remaining activity @1μM CDK1/CycA2 repeat 1) of 73%, a remaining activity at 1 µM (CDK1/CycA2; repeat 2, read-out: % remaining activity @1μM CDK1/CycA2 repeat 2) of 79% and a remaining activity at 1 µM (CDK2/CycA2; mean, read-out: % remaining activity @1μM CDK2/CycA2 Mean) of 60%. For the same compound, the remaining activity at 1 µM (CDK2/CycA2; repeat 1, read-out: % remaining activity @1μM CDK2/CycA2 repeat 1) was 57%, the remaining activity at 1 µM (CDK2/CycA2; repeat 2, read-out: % remaining activity @1μM CDK2/CycA2 repeat 2) was 62% and the remaining activity at 1 µM (CDK2/CycE1; mean, read-out: % remaining activity @1μM CDK2/CycE1 Mean) was 63%. It also gave a remaining activity at 1 µM (CDK2/CycE1; repeat 1, read-out: % remaining activity @1μM CDK2/CycE1 repeat 1) of 64% and a remaining activity at 1 µM (CDK2/CycE1; repeat 2, read-out: % remaining activity @1μM CDK2/CycE1 repeat 2) of 63%.
